Assay results as given in PMC5556108, “In vivo evaluation of radiotracers targeting the melanin-concentrating hormone receptor 1: [^11C]SNAP-7941 and [^18F]FE@SNAP reveal specific uptake in the ventricular system” (Scientific Reports, 2017).
Where a name gives a salt, the structure may show the parent alone. Read-outs that look alike come from different tables or passages of the source.

Experiments:
hMCHR1 = target: T1, hMCHR1 (Homo sapiens, UniProt Q99705); assay: Competitive binding studies: displacement of specific [125I]MCH binding on CHO-K1 cell membranes; settings: for binding cooperativity (from Hill slope factor) / Hill slope factor: displacement of [125I]MCH; for binding cooperativity (from Hill slope factor): CHO-K1 cell membranes expressing hMCHR1
T1 construct: purchased PerkinElmer, Inc., Waltham, USA; host or cells: CHO-K1 cell membranes
Experimental: Competitive binding studies were conducted on CHO-K1 cell membranes expressing the hMCHR1 (PerkinElmer, Inc., Waltham, USA). Briefly, cell membranes (10 µg/mL) were dissolved in 500 µL 50 mM Tris buffer (pH 7.4) (containing 10 mM MgCl2, 2 mM EDTA, 0.1% bacitracin and 0.2% BSA). […] All non-labelled compounds were initially dissolved in DMSO and diluted with deionized water to the final concentration, where the amount of DMSO never exceeded 5%. The membranes were incubated in vials at room temperature for 120 min. Subsequently, bound and free fractions of radioligand were separated by centrifugation at 40 000 × g for 20 min. The supernatants were removed into new vials and pellets were washed twice with 800 µL ice cold Tris buffer. The pellets were finally dissolved in 1300 µL Tris buffer and the radioactivity of both, the supernatant and the pellet, was measured in a Gamma Counter (2480 WIZARD[2], PerkinElmer, Waltham, MA, USA). The half-maximum inhibitory concentration (IC50) was determined using GraphPad Prism 6.0 (GraphPad Software, Inc., San Diego, CA, USA) and converted into the Ki using the Cheng Prusoff equation[38].

MCHR1 [1] = target: T2, MCHR1 (Rattus norvegicus, UniProt P97639); assay: Small-animal PET/CT/MRI brain imaging, radiotracer uptake (SUV) under baseline and displacement conditions; type: in vivo
T2 construct: Small-animal PET/MRI brain scans in healthy rats evinced high radiotracer uptake in the entire ventricular system; from tissue; host or cells: brain (whole brain, ventricular system) of male Sprague-Dawley rats, in vivo / ex vivo
Experimental: Twelve-weeks old male Sprague-Dawley rats (HIM:OFA, Himberg, Austria) weighing 389 ± 86 g were kept under controlled environmental conditions (22 ± 1 °C; 40–70% humidity; 12 hours light/dark cycle) with free access to water and standard laboratory animal diet (sniff R/M-H, sniff Spezialdiaeten GmbH, Soest, Germany). Prior to each experiment, the animals were placed into an induction chamber and anesthetized with 2.5% isoflurane. When unconscious, the animals were taken from the chamber and kept under anesthesia with 1.5–2.5% isoflurane provided via a mask during the whole experiment. Physiological parameters and the depth of anesthesia were monitored continuously. Administration of radioligands and MCHR1 antagonists were performed intravenously via the lateral tail vein. All procedures and protocols using animals have been approved by the Institutional Animal Care and Use Committee of the Medical University of Vienna, Austria, as well as by the Austrian Ministry of Science, Research and Economy (BMWFW-66.009/0029-WF/V/3b/2015). Every effort was made to minimize both, the suffering and the number of animals. All experimental procedures and protocols used in this study were performed in accordance with the relevant guidelines and regulations.
(§1) Anaesthetized rats were immobilized in a multimodal animal carrier unit (MACU; medres® – medical research GmbH, Cologne, Germany) and maintained at a body temperature of 37 °C throughout the whole experiment. Animals received either [^11C]SNAP-7941 or [^18F]FE@SNAP, followed by an injection of (±)-SNAP-7941 (15 mg/kg body weight, freshly dissolved in 400 µL; displacement condition; n = 3) or 400 µL of the respective solvent (vehicle condition; n = 3). The MCHR1 antagonists and the vehicle were administered either 15 min ([^11C]SNAP-7941) or 20 min ([^18F]FE@SNAP) after radiotracer injection as a bolus via the lateral tail vein. A stereotactic holder attached to the MACU was used to fix the head of the animals in a reliable and reproducible position within the whole imaging study. Experiments were initiated with a 7 minute cone beam attenuation CT (CBCT) of the brain (360 projections; binning 4 × 4; 80 kV; 500 µA; 200 ms exposure time) using a small-animal CT scanner (Siemens Inveon microSPECT/CT, Siemens Medical Solutions, Knoxville, USA). Subsequently the animals were positioned in the imaging chamber of a Siemens Inveon microPET scanner (Siemens Medical Solution, Knoxville, USA). [^11C]SNAP-7941 (75.85 ± 5.80 MBq; molar activity: 33.12 ± 25.73 GBq/µmol; radiochemical purity: >99%) or [^18F]FE@SNAP (44.12 ± 4.41 MBq; molar activity: 22.18 ± 9.72 GBq/µmol; radiochemical purity: >90%) was injected (200–800 µL) via the lateral tail vein and dynamic PET imaging was performed 45 min for the [^11C]-labeled radiotracer and 60 min for the [^18F]-labeled ligand. Immediately afterwards, T1-weighted high-resolution axial, coronary and sagittal brain MRI scans (2D FLASH; echo time: 3.85 ms; repetition time: 282 ms; flip angle: 30°; field of view: 35 × 35 mm; resolution: 68 × 68 µm; slice thickness: 0.4 mm) were performed using a Bruker BioSpec 94/30 USR small-animal MR system (Bruker BioSpin GmbH, Karlsruhe, Germany). At the end of the imaging study animals were sacrificed under anesthesia through an intravenous injection of pentobarbital sodium (Release® 300 mg/mL, WDT, Garbsen, Germany), brains were removed, weighed and subjected to radioactivity measurements in a Gamma Counter (2480 WIZARD[2], PerkinElmer, Waltham, MA, USA). Values were normalized to weight and dose and expressed as the percentage injected dose per gram of tissue (%ID/g).
CT raw data was reconstructed with a Feldkamp algorithm using a Shepp-Logan filter followed by standard rat beam-hardening correction and noise reduction (matrix size: 1024 × 1024; effective pixel size: 97.56 µm). […]

MCHR1 [2] = target: T2, MCHR1; assay: Ex-vivo brain uptake measured in the Gamma Counter; settings: mean ± SEM
Experimental: as §1

[3] = test system: P-glycoprotein (P-gp) and Breast Cancer Resistance Protein (BCRP); set-up: method as in PMID 23829932; settings: due to binding to P-gp and BCRP; cited from earlier work
[4] = set-up: method as in PMID 24106662; settings: cited from earlier work
[5] = displacement of 0.1 nM [125I]MCH, CHO-K1 cell membranes expressing hMCHR1, Cheng Prusoff, mean ± SEM
[6] = displacement of 0.1 nM [125I]MCH, CHO-K1 cell membranes expressing hMCHR1, mean ± SEM, three independent experiments
[7] = CHO-K1 cell membranes expressing hMCHR1, mean ± SEM
[8] = i.v. tracer, before displacement, group displaced with 15 mg/kg (±)-SNAP-7941, mean ± SEM
[9] = i.v. tracer, before displacement, group displaced with vehicle, mean ± SEM
[10] = male, Sprague-Dawley, in vivo, iv
[11] = male, Sprague-Dawley, in vivo, iv, 15 mg/kg
[12] = group with displacement via (±)-SNAP-7941 (15 mg/kg)

T2 sequence (P97639 whole entry): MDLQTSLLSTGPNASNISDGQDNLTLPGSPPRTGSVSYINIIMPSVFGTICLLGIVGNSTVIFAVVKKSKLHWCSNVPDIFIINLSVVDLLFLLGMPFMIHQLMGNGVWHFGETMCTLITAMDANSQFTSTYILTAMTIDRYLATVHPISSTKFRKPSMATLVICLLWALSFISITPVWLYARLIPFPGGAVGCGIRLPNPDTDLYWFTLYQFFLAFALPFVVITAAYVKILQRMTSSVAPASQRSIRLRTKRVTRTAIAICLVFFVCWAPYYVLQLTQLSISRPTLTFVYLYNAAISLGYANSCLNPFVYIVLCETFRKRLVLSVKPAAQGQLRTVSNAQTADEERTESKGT
T1 sequence (Q99705 whole entry): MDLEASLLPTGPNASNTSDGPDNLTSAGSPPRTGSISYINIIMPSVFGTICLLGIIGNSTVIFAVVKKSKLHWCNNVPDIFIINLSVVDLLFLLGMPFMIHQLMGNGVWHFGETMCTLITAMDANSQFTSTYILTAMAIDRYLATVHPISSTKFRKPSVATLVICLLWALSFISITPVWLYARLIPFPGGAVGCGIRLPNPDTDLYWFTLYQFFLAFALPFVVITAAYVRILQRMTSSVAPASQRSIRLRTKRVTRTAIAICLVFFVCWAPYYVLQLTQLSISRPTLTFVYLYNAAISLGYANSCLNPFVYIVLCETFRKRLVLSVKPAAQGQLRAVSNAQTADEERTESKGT

## COCC1=C(C(=O)OC)[C@H](c2ccc(F)c(F)c2)N(C(=O)NCCCN2CCC(c3cccc(NC(C)=O)c3)CC2)C(=O)N1 (racemic) [(±)-SNAP-7941]
hMCHR1; [5]
  Ki: 3.91 ± 0.74 nM
hMCHR1; [6]
  IC50: 5.61 ± 1.06 nM
hMCHR1
  binding cooperativity (from Hill slope factor): no binding cooperativity
hMCHR1; [7]
  Hill slope factor: 2.66 ± 0.39

## COCC1=C(C(=O)OC)[C@H](c2ccc(F)c(F)c2)N(C(=O)NCCCN2CCC(c3cccc(NC(C)=O)c3)CC2)C(=O)N1 [(+)-SNAP-7941, (+)-methyl(4 S)-3-{[(3-{4-[3-(acetylamino)phenyl]-1piperidinyl}propyl)amino]carbonyl}-4-(3,4-difluorophenyl)-6-(methoxymethyl)-2-oxo-1,2,3,4-tetra-hydro-5-pyrimidenecarboxylate hydrochloride]
hMCHR1
  IC50: 7.7 ± 0.35 nM
  Ki: 5.37 ± 0.25 nM
  binding cooperativity (from Hill slope factor): strong positive cooperativity
hMCHR1; [7]
  Hill slope factor: 8.89 ± 1.59

## COCC1=C(C(=O)OCCF)[C@H](c2ccc(F)c(F)c2)N(C(=O)NCCCN2CCC(c3cccc(NC(C)=O)c3)CC2)C(=O)N1 [FE@SNAP, (+)-(2-Fluoroethyl)(4 S)-3-{[(3-{4-[3-(acetylamino)phenyl]-1-piperidinyl}propyl)amin]carbonyl}-4-(3,4-difluorophenyl)-6-(methoxymethyl)-2-oxo-1,2,3,4-tetra-hydro-5-pyrimidenecarboxylate]
hMCHR1; [5]
  Ki: 9.98 ± 1.12 nM
hMCHR1; [6]
  IC50: 14.3 ± 1.61 nM
hMCHR1
  binding cooperativity (from Hill slope factor): no binding cooperativity
hMCHR1; [7]
  Hill slope factor: 1.30 ± 0.33

## COCC1=C(C(=O)O[11CH3])[C@H](c2ccc(F)c(F)c2)N(C(=O)NCCCN2CCC(c3cccc(NC(C)=O)c3)CC2)C(=O)N1 [[^11C]SNAP-7941]
MCHR1 [1]; [8]
  SUVbw whole brain, baseline: 0.41 ± 0.03 g/mL
MCHR1 [1]; [9]
  SUVbw ventricular system, baseline: 0.65 ± 0.04 g/mL
  SUVbw whole brain, baseline: 0.35 ± 0.03 g/mL
MCHR1 [1]; [10]
  SUVbw ventricular system, baseline: 0.64 ± 0.08 g/mL
  SUVbw ventricular system, displacement: 0.71 ± 0.04 g/mL
  SUVbw whole brain, displacement: 0.34 ± 0.02 g/mL
MCHR1 [1]; [11]
  SUVbw ventricular system, displacement: 0.32 ± 0.04 g/mL
  SUVbw whole brain, displacement: 0.31 ± 0.03 g/mL
MCHR1 [2]; [12]
  Ex-vivo brain uptake, normalized value: 0.015 ± 0.002 %ID/g
MCHR1 [2]; vehicle group
  Ex-vivo brain uptake, normalized value: 0.023 ± 0.002 %ID/g
[3]
  blood-brain-barrier penetration: limited blood-brain-barrier penetration

## COCC1=C(C(=O)OCC[18F])[C@H](c2ccc(F)c(F)c2)N(C(=O)NCCCN2CCC(c3cccc(NC(C)=O)c3)CC2)C(=O)N1 [[^18F]FE@SNAP]
[4]
  metabolism: fast metabolism
MCHR1 [1]; [8]
  SUVbw whole brain, baseline: 0.41 ± 0.01 g/mL
MCHR1 [1]; [9]
  SUVbw ventricular system, baseline: 0.72 ± 0.01 g/mL
  SUVbw whole brain, baseline: 0.43 ± 0.02 g/mL
MCHR1 [1]; [10]
  SUVbw ventricular system, baseline: 0.69 ± 0.06 g/mL
  SUVbw ventricular system, displacement: 0.73 ± 0.02 g/mL
  SUVbw whole brain, displacement: 0.44 ± 0.02 g/mL
MCHR1 [1]; [11]
  SUVbw ventricular system, displacement: 0.50 ± 0.04 g/mL
  SUVbw whole brain, displacement: 0.41 ± 0.02 g/mL
MCHR1 [2]; [12]
  Ex-vivo brain uptake, normalized value: 0.018 ± 0.003 %ID/g
MCHR1 [2]; vehicle group
  Ex-vivo brain uptake, normalized value: 0.020 ± 0.001 %ID/g
